Key:
[1] = 101.33 kPa, Liquid; for speed of sound: Sing-around technique in a fixed-path interferometer; for mass density: Vibrating tube method
[2] = xn = mol fraction of the nth substance listed; conditions: 81.5 kPa, Liquid, x2 = 0; for speed of sound: Sing-around technique in a fixed-path interferometer; for mass density: Vibrating tube method

CC(=O)N(C)C [N,N-dimethylethanamide]
[1]
Conditions | mass density [kg/m3] | speed of sound [m/s]
293.15 K | 941.341 | 1477.6
298.15 K | 936.729 | 1457.4
303.15 K | 932.112 | 1437.4
308.15 K | 927.492 | 1417.5
313.15 K | 922.863 | 1397.8
318.15 K | 918.23 | 1378.2
323.15 K | 913.586 | 1358.6
328.15 K | 908.932 | 1339.2
333.15 K | 904.268 | 1319.9
338.15 K | 899.595 | 1300.8
343.15 K | 894.909 | 1281.7

CN(C)C=O [dimethylformamide]
[1]
Conditions | mass density [kg/m3] | speed of sound [m/s]
293.15 K | 948.743 | 1477.1
298.15 K | 943.978 | 1457.6
303.15 K | 939.201 | 1438
308.15 K | 934.417 | 1418.7
313.15 K | 929.62 | 1399.3
318.15 K | 924.812 | 1380
323.15 K | 919.993 | 1360.9
328.15 K | 915.159 | 1341.7
333.15 K | 910.312 | 1322.7
338.15 K | 905.445 | 1303.7
343.15 K | 900.565 | 1284.8

CN(C)C=O [dimethylformamide] + CCn1cc[n+](C)c1.F[B-](F)(F)F
[2]
Conditions | mass density [kg/m3] | speed of sound [m/s]
293.15 K | 948.743 | 1477.1
298.15 K | 943.978 | 1457.6
303.15 K | 939.201 | 1438
308.15 K | 934.417 | 1418.7
313.15 K | 929.62 | 1399.3
318.15 K | 924.812 | 1380
323.15 K | 919.993 | 1360.9
328.15 K | 915.159 | 1341.7
333.15 K | 910.312 | 1322.7
338.15 K | 905.445 | 1303.7
343.15 K | 900.565 | 1284.8

CC(=O)N(C)C [N,N-dimethylethanamide] + CCn1cc[n+](C)c1.F[B-](F)(F)F
[2]
Conditions | mass density [kg/m3] | speed of sound [m/s]
293.15 K | 941.341 | 1477.6
298.15 K | 936.729 | 1457.4
303.15 K | 932.112 | 1437.4
308.15 K | 927.492 | 1417.5
313.15 K | 922.863 | 1397.8
318.15 K | 918.23 | 1378.2
323.15 K | 913.586 | 1358.6
328.15 K | 908.932 | 1339.2
333.15 K | 904.268 | 1319.9
338.15 K | 899.595 | 1300.8
343.15 K | 894.909 | 1281.7

CCn1cc[n+](C)c1.F[B-](F)(F)F [1-ethyl-3-methylimidazolium tetrafluoroborate]
[1]
Conditions | mass density [kg/m3] | speed of sound [m/s]
293.15 K | 1285.95 | 1640.4
298.15 K | 1282.14 | 1628.4
303.15 K | 1278.34 | 1616
308.15 K | 1274.55 | 1604.9
313.15 K | 1270.78 | 1593.4
318.15 K | 1267.03 | 1582
323.15 K | 1263.3 | 1570.6
328.15 K | 1259.58 | 1559.4
333.15 K | 1255.88 | 1548.2
338.15 K | 1252.2 | 1537.2
343.15 K | 1248.54 | 1526.2

— the NIST ThermoML archive (doi:10.1021/acs.jced.6b00496)
